From PMC6896740, “Safety, tolerability, pharmacokinetics, and pharmacodynamics of PF-06650833, a selective interleukin-1 receptor-associated kinase 4 (IRAK4) inhibitor, in single and multiple ascending dose randomized phase 1 studies in healthy subjects” (Arthritis Research & Therapy, 2019)

Tests used:
CYP3A = assay: 4β-hydroxycholesterol/cholesterol ratio as endogenous marker of CYP3A; type: in vivo, human; conditions: MAD, doses up to 750 mg BID
From the text: The primary objective of study 2 was to determine the safety and tolerability of MAD of orally administered IR and MR formulations of PF-06650833 after a standard meal in healthy adult subjects. The secondary objective was to evaluate the plasma and urine PK profiles of PF-06650833 after repeat dosing. Exploratory objectives were to assess the effects of PF-06650833 on exploratory biomarkers of PD activity, including high-sensitivity C-reactive protein (hsCRP), and to evaluate cholesterol/hydroxycholesterol ratios as an endogenous marker for cytochrome P450 3A (CYP3A) induction or inhibition.
For both studies, samples of blood (and urine in study 2) were taken for evaluation of PK/PD parameters (see Additional file 1: Supplemental Methods). […] Plasma and urine samples were analyzed using validated, sensitive, and specific liquid chromatography tandem mass spectrometric methods (at Pfizer Inc., Groton, CT, USA, for study 1 and at Worldwide Pharmacokinetics, Dynamics and Metabolism, Cambridge, MA, USA, for study 2). The lower limit of quantification for PF-06650833 in plasma was 0.0500 ng/mL. The lower limit of quantification for PF-06650833 in urine was 1.00 ng/mL. Serum samples were also analyzed for hsCRP, and plasma samples were analyzed for 4β-hydroxycholesterol and cholesterol. […]
35 Plasma samples were analyzed using a validated, sensitive , and specific liquid […]

healthy adult subjects = assay: Study 2 (MAD) safety and tolerability: TEAEs, urine crystals; type: in vivo
Protocol: Study 2 (B7921002; NCT02485769) was a 14-day, phase 1, randomized, double-blind, sponsor-open, placebo-controlled, sequential group, MAD study in healthy adult subjects (Fig. 1b).
Subjects were enrolled sequentially into seven cohorts. Within each cohort, eight subjects and two subjects were randomized to receive PF-06650833 and placebo, respectively. Doses for all cohorts were administered after a standard (not high-fat) meal. Multiple dosing regimens (once daily [QD] 24 h apart, twice daily [BID] 12 h apart, three times per day [TID] 8 h apart, and four times per day [QID] 6 h apart) were used to provide required total daily doses. In the final dosing scheme, multiple oral doses of PF-06650833 IR suspension formulations at 25, 100, 250, and 750 mg BID and 1000 mg QID were administered in cohorts 1–5. PF-06650833 IR 330 mg TID (cohort 6) and an MR tablet at a dose of 300 mg QD (cohort 7) were also evaluated (see Fig. 1b for final dosing scheme).
Dose escalation (cohorts 1–5) or dose selection (cohorts 6–8) was based upon the evaluation of ≥ 7 days of safety and tolerability for all subjects and ≥ 12 h of PK data for at least six subjects receiving PF-06650833. To establish an MTD, dose escalation was to cease when the limit of tolerability was achieved.
Safety assessments included incidence and severity of treatment-emergent AEs (TEAEs) and discontinuation due to TEAEs, incidence of treatment-emergent clinical laboratory abnormalities, and proportion of subjects meeting with pre-defined criteria for potential clinical concern in vital signs and electrocardiogram (ECG) parameters.
The safety analysis set was defined as all subjects who received at least one dose of study treatment, and data were summarized descriptively. The PK concentration analysis set was defined as all enrolled, treated subjects who had at least one concentration in at least one treatment period. The PK parameter analysis set was defined as all enrolled, treated subjects who had at least one of the PK parameters of interest in at least one treatment period. The PD analysis set was defined as all enrolled subjects who received at least one dose of PF-06650833 and had at least one PD parameter. PK/PD data were summarized descriptively.
PK parameters were calculated using non-compartmental analysis of concentration-time data. For study 1 only, data from cohort 1 (period 4 [IR 30 mg] versus period 5 [IR 30 mg + food]) and cohort 3 (period 2 [MR 30 mg] versus period 3 [MR 30 mg + food]) were used to estimate the effect of food intake. Cmax and AUC were calculated for each subject and treatment, with and without food, after which a within-subject difference could be found between fed (high-fat meal) and fasted doses. Analysis of covariance was used to model these within-subject differences and to calculate 95% confidence intervals (CIs) for the differences for each dose (IR 30 mg and MR 30 mg). For study 2 only, the amounts of PF-06650833 in urine and renal clearance were listed and summarized descriptively. As part of the routine safety laboratory monitoring, the presence of any atypical crystals in urine specimens was semi-quantitatively assessed microscopically by typical histopathologic methods and scored as numbers of crystals per high power field (hpf); higher abundance (moderate or many) was defined as ≥ 15/hpf. No formal interim analyses were conducted.

[1] = design: method as in PMID 28498658; conditions: cited from earlier work
[2] = IR 100 mg BID, 14 days, fed, 8 evaluable

CC[C@@H]1[C@H](F)C(=O)N[C@@H]1COc1nccc2cc(C(N)=O)c(OC)cc12 [PF-06650833, 1-{[(2S,3S,4S)-3-Ethyl-4-fluoro-5-oxopyrrolidin-2-yl]methoxy}-7-methoxyisoquinoline-6-carboxamide]
CYP3A induction or inhibition based on cholesterol/hydroxycholesterol ratio (CYP3A): no apparent trend for CYP3A induction or inhibition
Infections and infestations: subjects with AE, all causalities (treatment-related) (healthy adult subjects; [2]): 1 (0)
Upper respiratory tract infection: subjects with AE, all causalities (treatment-related) (healthy adult subjects; [2]): 1 (0)
Nasal congestion: subjects with AE, all causalities (treatment-related) (healthy adult subjects; IR 330 mg TID, 14 days, fed, 8 evaluable): 1 (1)
Infections and infestations: subjects with AE, all causalities (treatment-related) (healthy adult subjects; IR 750 mg BID, 14 days, fed, 8 evaluable): 1 (1)
Infections and infestations: subjects with AE, all causalities (treatment-related) (healthy adult subjects; MR 300 mg QD, 14 days, fed, 8 evaluable): 1 (0)
Serious AEs or deaths (healthy adult subjects; all dose groups): No serious AEs or deaths
Severity of TEAEs (healthy adult subjects; in vivo): mild or moderate
Maximum tolerated dose (healthy adult subjects; multiple doses up to IR 1000 mg QID, MR 300 mg QD): not established
Permeability [1]: high-permeability compound
